# Assay results reported in ChEMBL document CHEMBL5344413, “Discovery of 4-(1,2,4-Oxadiazol-5-yl)azepan-2-one Derivatives as a New Class of Cannabinoid Type 2 Receptor Agonists for the Treatment of Inflammatory Pain” (J Med Chem, 2023).
# Active and inactive are the calls of the source.
# Tests used:
# [1] = Intrinsic clearance in human liver at 10 uM measured per kg body weight; type: ADME, tissue-based
# [2] = AUC(0 to t) in BALB/c mouse at 5 mg/kg, po; type: ADME, organism-based; set-up: dose 5 mg/kg, route po; conditions: in vivo
# [3] = MRT(0 to t) in BALB/c mouse at 5 mg/kg, po; type: ADME, organism-based; conditions: in vivo
# [4] = Half life in human liver microsomes at 10 uM; type: ADME, Microsome
# [5] = Half life in BALB/c mouse at 20 mg/kg, po; type: ADME, organism-based; conditions: in vivo
# [6] = Toxicity against C57BL/6 mouse assessed as change in body temperature at 20 mg/kg, ip measured within 4 hrs by thermometer analysis; type: organism-based; conditions: in vivo
# [7] = Intrinsic clearance in rat liver microsomes at 10 uM measured per mg protein; type: ADME, Microsome; conditions: read-out: CLH
# [8] = AUC(0 to t) in BALB/c mouse at 5 mg/kg, ip; type: ADME, organism-based; set-up: dose 5 mg/kg, route ip; conditions: in vivo
# Cannabinoid receptor 2 [9] = target: T1, Cannabinoid receptor 2 (Homo sapiens, UniProt P34972); assay: Agonist activity at N-terminal HA/Flag-tagged CB2 receptor (unknown origin) expressed in CHO cells assessed as increase in Akt phosphorylation at 300 nM measured after 15 mins in presence of CB2 receptor antagonist, AM630 by western blot analysis; type: functional, cell-based
# T1 sequence (P34972 whole entry): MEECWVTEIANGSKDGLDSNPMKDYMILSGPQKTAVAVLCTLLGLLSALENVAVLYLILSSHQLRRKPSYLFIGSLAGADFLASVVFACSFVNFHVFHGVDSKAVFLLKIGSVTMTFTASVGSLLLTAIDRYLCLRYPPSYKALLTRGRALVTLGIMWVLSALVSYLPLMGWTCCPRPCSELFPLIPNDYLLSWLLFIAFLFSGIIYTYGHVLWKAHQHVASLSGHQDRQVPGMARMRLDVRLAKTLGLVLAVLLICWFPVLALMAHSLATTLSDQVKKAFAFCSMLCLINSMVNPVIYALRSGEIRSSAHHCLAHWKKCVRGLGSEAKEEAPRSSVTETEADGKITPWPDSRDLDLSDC
# Homo sapiens = species: Homo sapiens; assay: Selectivity ratio of EC50 for agonist activity at human CB1 receptor expressed in CHO cells to EC50 for agonist activity at human CB2 receptor expressed in CHO cells; type: cell-based
# CHO [10] = assay: Induction of Akt phosphorylation in Chinese hamster CHO cells at 1000 nM measured after 15 mins by western blot analysis; type: cell-based; conditions: Cricetulus griseus
# [11] = Half life in rat liver microsomes at 10 uM; type: ADME, Microsome
# Mus musculus [12] = assay: (§1) Antinociceptive activity against ip dosed carrageenan-induced inflammatory C57BL/6 mouse model assessed as reduction in hyperalgesia by measuring increase in paw withdrawal threshold measured at 5 hrs and 2 hrs following carrageenan and compound challenge respectively by plantar esthesiometer analysis; type: functional, organism-based; conditions: dose 5-20 mg/kg
# Mus musculus [13] = assay: (§2) Antinociceptive activity against carrageenan-induced inflammatory C57BL/6 mouse model assessed as reduction in paw thickness at 20 mg/kg, ip measured at 5 hrs and 2 hrs following carrageenan and compound challenge respectively by digital caliper analysis; type: functional, organism-based
# Cannabinoid receptor 2 [14] = target: T1, Cannabinoid receptor 2; assay: Agonist activity at LgBiT-fused CB2 receptor (unknown origin) coexpressed with miniGalphai-SmBiT in HEK293T cells assessed as G-protein recruitment measured after 10 mins in presence of CB2 receptor antagonist, AM630 by NanoBiT luciferase assay; type: functional, cell-based
# Cannabinoid receptor 2 [15] = target: T1, Cannabinoid receptor 2; assay: Agonist activity at LgBiT-fused CB2 receptor (unknown origin) coexpressed with miniGalphai-SmBiT in HEK293T cells assessed as G-protein recruitment by measuring complementation measured after 10 mins by NanoBiT luciferase assay; type: functional, cell-based
# [16] = Half life in BALB/c mouse at 5 mg/kg, po; type: ADME, organism-based; conditions: in vivo
# [17] = AUC(0 to t) in BALB/c mouse at 1 mg/kg, iv; type: ADME, organism-based; set-up: dose 1 mg/kg, route iv; conditions: in vivo
# [18] = Half life in BALB/c mouse at 5 mg/kg, ip; type: ADME, organism-based; conditions: in vivo
# [19] = Half life in mouse liver microsomes at 10 uM; type: ADME, Microsome
# [20] = Metabolic stability of the compound in rat liver microsomes assessed as parent compound remaining at 10 uM measured after 60 mins; type: ADME, Microsome; conditions: read-out: Stability
# [21] = Intrinsic clearance in mouse liver microsomes at 10 uM measured per mg protein; type: ADME, Microsome; conditions: read-out: CLH
# [22] = AUC(0 to infinity) in BALB/c mouse at 20 mg/kg, po; type: ADME, organism-based; set-up: dose 20 mg/kg, route po; conditions: in vivo
# [23] = MRT(0 to t) in BALB/c mouse at 5 mg/kg, ip; type: ADME, organism-based; conditions: in vivo
# Cannabinoid receptor 2 [24] = target: T1, Cannabinoid receptor 2; assay: Agonist activity at human CB2 receptor expressed in CHO cells assessed as inhibition of forskolin-stimulated intracellular cAMP accumulation measured after 30 mins by Glosensor assay; type: functional, cell-based
# Cannabinoid receptor 2 [25] = target: T1, Cannabinoid receptor 2; assay: Agonist activity at human CB2 receptor expressed in CHO cells assessed as inhibition of forskolin-stimulated intracellular cAMP accumulation measured after 30 mins by Glosensor assay relative to control; type: functional, cell-based; conditions: filed as agonist
# [26] = Metabolic stability of the compound in human liver microsomes assessed as parent compound remaining at 10 uM measured after 60 mins; type: ADME, Microsome; conditions: read-out: Stability
# Cannabinoid receptor 2 [27] = target: T1, Cannabinoid receptor 2; assay: Agonist activity at N-terminal HA/Flag-tagged CB2 receptor (unknown origin) expressed in CHO cells assessed as increase in ERK1/2 phosphorylation at 300 nM measured after 15 mins in presence of CB2 receptor antagonist, AM630 by western blot analysis; type: functional, cell-based
# [28] = Tmax in BALB/c mouse at 5 mg/kg, ip; type: ADME, organism-based; conditions: in vivo
# Cannabinoid receptor 2 [29] = target: T1, Cannabinoid receptor 2; assay: Agonist activity at N-terminal HA/Flag-tagged CB2 receptor (unknown origin) expressed in CHO cells assessed as increase in ERK1/2 phosphorylation measured after 15 mins by western blot analysis; type: functional, cell-based; conditions: filed as agonist, dose 12-300 nM
# [30] = Intrinsic clearance in mouse liver at 10 uM measured per kg body weight; type: ADME, tissue-based
# Cannabinoid receptor 1 = Cannabinoid receptor 1 (Homo sapiens, UniProt P21554); assay: Agonist activity at human CB1 receptor expressed in CHO cells assessed as inhibition of forskolin-stimulated intracellular cAMP accumulation measured after 30 mins by Glosensor assay; type: cell-based
# Sequence of Cannabinoid receptor 1 (P21554 whole entry): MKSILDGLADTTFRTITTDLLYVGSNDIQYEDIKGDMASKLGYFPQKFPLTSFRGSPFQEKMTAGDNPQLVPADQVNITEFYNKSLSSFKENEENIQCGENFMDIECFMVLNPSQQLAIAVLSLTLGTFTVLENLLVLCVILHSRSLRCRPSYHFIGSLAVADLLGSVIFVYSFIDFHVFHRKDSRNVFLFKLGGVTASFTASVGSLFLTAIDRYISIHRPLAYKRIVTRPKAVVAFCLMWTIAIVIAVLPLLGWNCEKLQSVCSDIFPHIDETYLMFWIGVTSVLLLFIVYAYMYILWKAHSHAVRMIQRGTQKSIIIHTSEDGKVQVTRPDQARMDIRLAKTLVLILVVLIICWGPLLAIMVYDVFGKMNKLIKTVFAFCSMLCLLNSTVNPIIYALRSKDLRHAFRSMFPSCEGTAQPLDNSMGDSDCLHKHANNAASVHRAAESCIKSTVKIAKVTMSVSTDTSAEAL
# CHO [31] = assay: Agonist activity at CB2 receptor F872.57A mutant (unknown origin) expressed in CHO cells assessed as inhibition of forskolin-stimulated intracellular cAMP accumulation measured after 30 mins by Glosensor assay; type: cell-based; conditions: Homo sapiens
# [32] = Clearance in BALB/c mouse at 5 mg/kg, ip; type: ADME, organism-based; conditions: in vivo
# [33] = MRT(0 to t) in BALB/c mouse at 1 mg/kg, iv; type: ADME, organism-based; conditions: in vivo
# [34] = Clearance in BALB/c mouse at 5 mg/kg, po; type: ADME, organism-based; conditions: in vivo
# Mus musculus [35] = assay: as §1, with “against” for “against ip dosed”, “threshold at 20 mg/kg, ip administered with CB2 receptor antagonist, AM630 at 10 mins prior to drug challenge and” for “threshold”; type: functional, organism-based
# [36] = system: Cannabinoid receptor 2 (Homo sapiens), P34972 [UNDEFINED MUTATION]; assay: Agonist activity at CB2 receptor F183ECL2A mutant (unknown origin) expressed in CHO cells assessed as inhibition of forskolin-stimulated intracellular cAMP accumulation measured after 30 mins by Glosensor assay; type: cell-based
# Sequence of Cannabinoid receptor 2 (Homo sapiens), P34972 [UNDEFINED MUTATION] (P34972 whole entry, looked up, stated change not applied): as the sequence (P34972 whole entry) above
# [37] = Cmax in BALB/c mouse at 5 mg/kg, ip; type: ADME, organism-based; set-up: dose 5 mg/kg, route ip; conditions: in vivo
# [38] = Protein binding in mouse plasma by dialysis method; type: ADME, cell-free; conditions: read-out: PPB (converted)
# [39] = Intrinsic clearance in rat liver at 10 uM measured per kg body weight; type: ADME, tissue-based
# Mus musculus [40] = assay: as §1, with “against” for “against ip dosed”, “threshold at 20 mg/kg, po” for “threshold”; type: functional, organism-based
# [41] = Protein binding in human plasma by dialysis method; type: ADME, cell-free; conditions: read-out: PPB (converted)
# CHO [42] = assay: Agonist activity at CB2 receptor W1945.43A mutant (unknown origin) expressed in CHO cells assessed as inhibition of forskolin-stimulated intracellular cAMP accumulation measured after 30 mins by Glosensor assay; type: cell-based; conditions: Homo sapiens
# [43] = Metabolic stability of the compound in mouse liver microsomes assessed as parent compound remaining at 10 uM measured after 60 mins; type: ADME, Microsome; conditions: read-out: Stability
# [44] = Tmax in BALB/c mouse at 5 mg/kg, po; type: ADME, organism-based; conditions: in vivo
# [45] = Half life in BALB/c mouse at 1 mg/kg, iv; type: ADME, organism-based; conditions: in vivo
# [46] = Tmax in BALB/c mouse at 1 mg/kg, iv; type: ADME, organism-based; conditions: in vivo
# [47] = Bioavailability in BALB/c mouse at 5 mg/kg, ip; type: ADME, organism-based; conditions: in vivo
# CHO [48] = assay: Induction of ERK1/2 phosphorylation in Chinese hamster CHO cells at 1000 nM measured after 15 mins by western blot analysis; type: cell-based; conditions: Cricetulus griseus
# [49] = Intrinsic clearance in human liver microsomes at 10 uM measured per mg protein; type: ADME, Microsome; conditions: read-out: CLH
# [50] = Clearance in BALB/c mouse at 1 mg/kg, iv; type: ADME, organism-based; conditions: in vivo
# Cannabinoid receptor 2 [51] = target: T1, Cannabinoid receptor 2; assay: Agonist activity at N-terminal HA/Flag-tagged CB2 receptor (unknown origin) expressed in CHO cells assessed as increase in Akt phosphorylation measured after 15 mins by western blot analysis; type: functional, cell-based; conditions: filed as agonist, dose 12-300 nM
# [52] = Protein binding in rat plasma by dialysis method; type: ADME, cell-free; conditions: read-out: PPB (converted)
# [53] = Cmax in BALB/c mouse at 1 mg/kg, iv; type: ADME, organism-based; set-up: dose 1 mg/kg, route iv; conditions: in vivo
# Mus musculus [54] = assay: as §2, with “mg/kg, ip administered with CB2 receptor antagonist, AM630 at 10 mins prior to drug challenge and measured at” for “mg/kg, ip measured at”; type: functional, organism-based
# [55] = Oral bioavailability in BALB/c mouse at 5 mg/kg; type: ADME, organism-based; conditions: in vivo
# [56] = Toxicity against C57BL/6 mouse assessed as induction of catalepsy at 20 mg/kg, ip measured within 4 hrs; type: organism-based; conditions: in vivo
# [57] = Cmax in BALB/c mouse at 5 mg/kg, po; type: ADME, organism-based; set-up: dose 5 mg/kg, route po; conditions: in vivo
smiles,measurement,setting,value
O=C1CC(c2nc(-c3ccc(F)c4cn[nH]c34)no2)CCCN1c1ccc(F)cc1 (centres undefined),CLH,[1],28.8 mL/min/kg
same,AUC(0-t),[2],1660 ng·h/mL
same,MRT last,[3],128 min
same,half-life at 10 µM,[4],60.3 min
same,half-life,[5],224 min
same,Activity,[6],Non-Toxic
same,microsomal CLint at 10 µM,[7],130 µL/min/mg
same,AUC(0-t),[8],1830 ng·h/mL
same,Activity,Cannabinoid receptor 2 [9],inactive
same,Ratio EC50,Homo sapiens,> 1430
same,Activity,CHO [10],inactive
same,half-life at 10 µM,[11],10.7 min
same,Activity,Mus musculus [12],Dose-Dependent Effect
same,Activity,Mus musculus [13],Active
same,Activity,Cannabinoid receptor 2 [14],inactive
same,EC50,Cannabinoid receptor 2 [15],84.7 nM
same,half-life,[16],42 min
same,AUC(0-t),[17],413 ng·h/mL
same,half-life,[18],56.4 min
same,half-life at 10 µM,[19],13.1 min
same,"remaining at 1 h, 10 µM",[20],1.83%
same,microsomal CLint at 10 µM,[21],106 µL/min/mg
same,AUC(0-inf),[22],18000 ng·h/mL
same,MRT last,[23],103 min
same,EC50,Cannabinoid receptor 2 [24],21 nM
same,Emax,Cannabinoid receptor 2 [25],87%
same,"remaining at 1 h, 10 µM",[26],46.3%
same,Activity,Cannabinoid receptor 2 [27],inactive
same,Tmax,[28],19.8 min
same,Activity,Cannabinoid receptor 2 [29],Dose-Dependent Effect
same,CLH,[30],415 mL/min/kg
same,EC50,Cannabinoid receptor 1,> 30000 nM
same,Activity,CHO [31],inactive
same,CL/F,[32],45.8 mL/min/kg
same,MRT last,[33],49.8 min
same,CL/F,[34],50.8 mL/min/kg
same,Activity,Mus musculus [35],inactive
same,Activity,[36],inactive
same,Cmax,[37],1080 ng/mL
same,fraction unbound,[38],0.032
same,CLH,[39],232 mL/min/kg
same,Activity,Mus musculus [40],Active
same,fraction unbound,[41],0.011
same,Activity,CHO [42],inactive
same,"remaining at 1 h, 10 µM",[43],3.15%
same,Tmax,[44],25.2 min
same,half-life,[45],70.8 min
same,Tmax,[46],4.8 min
same,bioavailability,[47],88.5%
same,Activity,CHO [48],inactive
same,microsomal CLint at 10 µM,[49],23 µL/min/mg
same,clearance,[50],41.2 mL/min/kg
same,Activity,Cannabinoid receptor 2 [51],Dose-Dependent Effect
same,fraction unbound,[52],0.074
same,Cmax,[53],615 ng/mL
same,Activity,Mus musculus [54],inactive
same,bioavailability,[55],80.5%
same,Activity,[56],Non-Toxic
same,Cmax,[57],621 ng/mL
